Data as given in paper PMC7496768, “Understanding Substrate Selectivity of Phoslactomycin Polyketide Synthase by Using Reconstituted in Vitro Systems” (Chembiochem, 2020).

Target: T1, Npt (Streptomyces platensis, UniProt A0AAE6NLM9)
T1 construct: recombinant, expressed in E. coli BL21 (DE3), purified
T1 sequence (A0AAE6NLM9 1-219): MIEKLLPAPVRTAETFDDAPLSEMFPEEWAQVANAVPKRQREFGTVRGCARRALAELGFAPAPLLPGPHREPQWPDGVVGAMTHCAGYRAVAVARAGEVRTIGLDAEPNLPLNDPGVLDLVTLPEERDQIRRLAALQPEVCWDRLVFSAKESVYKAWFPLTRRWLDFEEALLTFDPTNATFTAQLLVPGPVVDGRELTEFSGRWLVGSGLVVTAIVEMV
Experiment: phosphopantetheinylation of apo-ACPs
Assay type: biochemical
Settings: apo-Pn ACPs as acceptor

## CC(C)(COP(=O)(O)OP(=O)(O)OC[C@H]1O[C@@H](n2cnc3c(N)ncnc32)[C@H](O)[C@@H]1OP(=O)(O)O)[C@@H](O)C(=O)NCCC(=O)NCCS [CoA-SH]
  phosphopantetheinylation of apo-ACPs: Npt serves as a bona fide Ppant transferase that is able to activate apo‐Pn_ACPs
